The data set is described as follows: Transmission electron microscopy of aggregate morphology. The format is physicochemical. How it is done: In order to analyze the morphology of the aggregates formed by peptide PHB4, peptide solutions were subjected to different experimental treatments where conditions such as temperature, incubation time and the presence of electrolytes were manipulated to facilitate aggregation (FIG. 10). For this particular study, two peptide solutions (2 mg/mL, 0.73 mM) were prepared, one in water and another in PBS. A sample was then taken from each, directly fixed on the grids and observed under the microscope (T0 samples). The remainder was incubated for 1 hour at 50° C. and then samples were taken and fixed immediately (T1 samples). The remainder was then incubated for an additional 2 hours at room temperature, and then fixed (T2 samples).

Where a SMILES comes first, the peptide text is derived from it. Bridges are numbered along the chain shown (N, C = ends). [ ]: non-standard residue; d: D form.

Consider `CC[C@H](C)[C@@H]1NC(=O)[C@H](Cc2ccccc2)NC(=O)[C@H](Cc2c[nH]c3ccccc23)NC(=O)[C@H](CC(N)=O)NC(=O)[C@H](C(C)C)NC(=O)[C@H](CCCCN)NC(=O)[C@H](Cc2c[nH]c3ccccc23)NC(=O)[C@H](CCCCN)NC(=O)[C@H]2CCCN2C(=O)[C@H](CCCNC(=N)N)NC(=O)[C@H]([C@@H](C)O)NC(=O)[C@H](Cc2c[nH]c3ccccc23)NC(=O)[C@H](Cc2ccc(O)cc2)NC(=O)[C@H](C(C)C)NC(=O)[C@H](CCC(=O)O)NC(=O)[C@H]([C@@H](C)CC)NC(=O)[C@@H](N)CSSC[C@@H](C(=O)N[C@@H](CCCCN)C(=O)N[C@@H](CCCCN)C(=O)N[C@@H](CCCCN)C(N)=O)NC1=O` [PHB4] (H-CIEVYWTR[dP]KWKVNWFICKKK-NH2; disulfide 1-18; N-terminus assumed), for which the “Size of protofibril/fibril-type filamentous structures” value (2 mg/mL in water, after 50° C. treatment) was 5-10 nm. In addition, under “2 mg/mL in water, room temperature”, the Diameter of particulates is recorded as 5-20 nm. In addition, where the note is “2 mg/mL, immediately after dissolving in PBS”, the “Size of filamentous structures” value was 5-20 nm.

For the origin of these results see patent publication US9896482B2, “Beta hairpin peptides having antiviral properties against Dengue virus” (CENTRO DE INGENIERÍA GENÉTICA Y BIOTECNOLOGÍA, priority 2014, dated 2018).
